Tests used:
[1] = test system: CD103 and CD8 positive cells (CD8 TRM); test: IL-17 or IFNγ expression CD103 and CD8 positive cells (CD8 TRM) in skin of Vimentin antigen-specific systemic sclerosis animal model, confocal microscope; assay type: in vivo, SKG mouse; settings: 10 mg/kg subcutaneously three times a week; vs vim SSc group
Experimental: In systemic sclerosis, Vimentin increased the disease symptom activity of systemic sclerosis, and thus, the effect of the STAT6 inhibitor was evaluated in a Vimentin antigen-specific systemic sclerosis animal model. Specifically, systemic sclerosis was induced by immunizing a 8-week-old SKG mouse with a Vimentin protein as an antigen and then subcutaneously injecting 100 μL of Bleomycin (BLM) six times a week for two weeks. Thereafter, on week 2 of systemic sclerosis induction, the mouse was secondary immunized with the Vimentin protein, and then subcutaneously injected with the STAT6 inhibitor of the present disclosure three times a week at a concentration of 10 mg/kg until week 5 from the starting of the experiment. Thereafter, at the end point of the experiment, the mouse was humanely sacrificed, and skin and lung tissues were obtained, and then the thickness of the skin dermal layer was identified by H&E staining, and the expression of CSV in the lung tissue was identified by immunohistochemical staining. The specific experimental process was illustrated in FIG. 9, and as a control group, a Vimentin antigen-specific systemic sclerosis animal model (vim SSc group) with increased disease symptom activity by a Vimentin antigen was used. […]

[2] = test system: cell surface Vimentin (CSV) and fibrosis factors aSMA, Col1, IL-17; test: Fibrosis factors and cell surface Vimentin in skin tissue of systemic sclerosis mouse, immunohistochemical staining; assay type: in vivo, B6 mouse; settings: 10 mg/kg orally daily, vs Vehicle group
Experimental: (§1) To determine whether the STAT6 inhibitor of the present disclosure alleviated systemic sclerosis, a systemic sclerosis animal model was constructed. Specifically, a 2×2 cm area on the nape of the neck of the B6 mouse was shaved using a clipper, and then subcutaneously injected with 100 μL of PBS containing 50 μg of bleomycin (BLM) daily for 2 weeks to induce systemic sclerosis. One week after the start of BLM administration, 200 μL of vehicle solution (10% DMSO, 40% PEG300, 5% tween 80 and 45% Saline) containing the STAT6 inhibitor at a concentration of 10 mg/kg was orally administered daily. Thereafter, the blood from the mouse was collected on week 1 and week 5 after induction of systemic sclerosis, and the activity of M2 macrophages capable of inducing fibrosis from the collected blood was analyzed using flow cytometry. As a control group, a wild-type mouse (WT) and a Vehicle group that was induced with systemic sclerosis but not treated with a drug were used.
In autoimmune diseases, it has been reported that Vimentin played an important role in cell interaction and the function of the immune system, and mutated or natural-type Vimentin was involved in the inflammatory responses and the pathogenesis of various autoimmune diseases (Autoimmun Rev. 2018 September: 17 (9): 926-934. doi: 10.1016/j.autrev.2018.04.004. Epub 2018 Jul. 17.), and thus, even in systemic sclerosis, the effect of the STAT6 inhibitor on the expression pattern of cell surface Vimentin (CSV) was also identified. Specifically, the expression of fibrosis factors aSMA, Col1, and IL-17 and CSV-positive cells in the skin tissue obtained in Example 4-1 was identified by immunohistochemical staining.

[3] = test system: pSTAT6 and CD8 positive T cells; test: pSTAT6 and CD8 positive T cells in skin and lung tissues of systemic sclerosis mouse, confocal microscopy; assay type: in vivo, B6 mouse; settings: 10 mg/kg orally daily, vs Vehicle group
[4] = test system: M2 macrophages; test: M2 macrophage activity in blood of bleomycin-induced systemic sclerosis animal model, flow cytometry; assay type: in vivo, B6 mouse; settings: 10 mg/kg orally daily; BLM-induced; vs Vehicle group
Experimental: as §1

[5] = test system: human dermal fibroblast line; test: Expression of fibrosis genes in TGF-β-treated fibroblasts, real-time PCR; assay type: cell-based; settings: with 10 ng/ml TGF-β, 24 hours; vs TGF-β alone
Experimental: In order to identify the effect of STAT6 inhibition on systemic sclerosis of the present disclosure, inhibition of fibrosis genes of fibroblasts was identified. Specifically, a human dermal fibroblast line was treated with 10 ng/ml of TGF-β and […] of an STAT6 inhibitor and then cultured for 24 hours. Thereafter, the expression of fibrosis factors, TGF-β, Col1a1 (Collagen, type I, alpha 1), and α-SMA 10 (alpha smooth muscle actin), was identified by real-time PCR.

[6] = test system: systemic sclerosis animal model; test: Skin fibrosis in systemic sclerosis animal model, H&E staining; assay type: in vivo, B6 mouse; settings: 10 mg/kg orally daily; BLM-induced; vs Vehicle group
Experimental: as §1
To determine whether the STAT6 inhibitor of the present disclosure alleviated systemic sclerosis, inhibition of skin fibrosis was identified. […]

[7] = test system: spleen single cells; test: Control of fibrosis-related immunocytes in TGF-β-treated spleen single cells, flow cytometry; assay type: cell-based, B6 mouse; settings: 10 nM, with 10 ng/ml TGF-β, 72 hours; vs TGF-β alone
Experimental: In order to identify an effect of inhibiting signal transducer and activator of transcription 6 (STAT6) on systemic sclerosis of the present disclosure, the control effect of immunocytes related to fibrosis was identified. Specifically, spleen single cells were obtained from a B6 mouse, treated with 10 ng/ml of transforming growth factor-β (TGF-β) and 10 nM of a STAT6 inhibitor (YM-341619, Chemical Formula 1), and then cultured for 72 hours. The expression of profibrotic T cells, M2 macrophages, and Treg related to systemic sclerosis was analyzed by flow cytometry. In addition, the expression ratio of M2 macrophages and M1 macrophages was identified to identify the control of immunocytes. As a control group, an untreated control group (Nil) and a group treated with TGF-β alone were used.

[8] = test system: systemic sclerosis animal model; test: Pulmonary fibrosis in systemic sclerosis animal model, H&E staining; assay type: in vivo, B6 mouse; settings: 10 mg/kg orally daily; BLM-induced; vs Vehicle group
Experimental: as §1
It has been identified whether the STAT6 inhibition of the present disclosure inhibited pulmonary fibrosis in systemic sclerosis. Specifically, a lung tissue was obtained from the mouse sacrificed in the Example 4-1 above, and subjected to H&E staining to determine the histological score for pulmonary fibrosis.

[9] = test system: cell surface Vimentin (CSV) and fibrosis factors aSMA, Col1, IL-17; test: Fibrosis factors and cell surface Vimentin in lung tissue of systemic sclerosis mouse, immunohistochemical staining; assay type: in vivo, B6 mouse; settings: 10 mg/kg orally daily, vs Vehicle group
Experimental: as §1
It was identified whether the STAT6 inhibition of the present disclosure inhibited cell surface Vimentin in the tissue. Specifically, the expression of fibrosis factors aSMA, Col1, and IL-17 and CSV-positive cells in the lung tissue obtained in Example 4-2 was identified by immunohistochemical staining.

[10] = test system: Vimentin antigen-specific systemic sclerosis animal model; test: Skin fibrosis and CSV expression in Vimentin antigen-specific systemic sclerosis animal model; assay type: in vivo, SKG mouse; settings: 10 mg/kg subcutaneously three times a week until week 5; vs vim SSc group
Experimental: In systemic sclerosis, Vimentin increased the disease symptom activity of systemic sclerosis, and thus, the effect of the STAT6 inhibitor was evaluated in a Vimentin antigen-specific systemic sclerosis animal model. Specifically, systemic sclerosis was induced by immunizing a 8-week-old SKG mouse with a Vimentin protein as an antigen and then subcutaneously injecting 100 μL of Bleomycin (BLM) six times a week for two weeks. Thereafter, on week 2 of systemic sclerosis induction, the mouse was secondary immunized with the Vimentin protein, and then subcutaneously injected with the STAT6 inhibitor of the present disclosure three times a week at a concentration of 10 mg/kg until week 5 from the starting of the experiment. Thereafter, at the end point of the experiment, the mouse was humanely sacrificed, and skin and lung tissues were obtained, and then the thickness of the skin dermal layer was identified by H&E staining, […] The specific experimental process was illustrated in FIG. 9, and as a control group, a Vimentin antigen-specific systemic sclerosis animal model (vim SSc group) with increased disease symptom activity by a Vimentin antigen was used.

NC(=O)c1cnc(Nc2ccc(N3CCOCC3)cc2)nc1NCc1c(F)ccc(F)c1F [STAT6 inhibitor, YM-341619]
IFNγ expression CD103 and CD8 positive cells in skin tissue [1]: no change
IL-17 expression CD103 and CD8 positive cells (CD8 TRM) in skin tissue [1]: significantly reduced
expression of Col1 in skin tissue [2]: significantly reduced
expression of IL-17 in skin tissue [2]: significantly reduced
expression of aSMA in skin tissue [2]: significantly reduced
number of CSV positive cells in skin tissue [2]: significantly reduced
expression of pSTAT6 and CD8 positive T cells in lung tissue ([3]; lung): significantly reduced
expression of pSTAT6 and CD8 positive T cells in skin tissue ([3]; skin): significantly reduced
activity of M2 macrophages capable of inducing fibrosis in blood [4]: significantly reduced
expression of fibrosis gene Col1a1 [5]: significantly decreased
expression of fibrosis gene TGF-β [5]: significantly decreased
expression of fibrosis gene α-SMA [5]: significantly decreased
thickness of the skin dermal layer [6]: significantly reduced
M2/M1 expression ratio [7]: significantly reduced
expression of M2 macrophages [7]: significantly reduced
expression of Treg [7]: significantly increased
expression of pro-fibrosis T cells (IL-4+ T cells and IL-4+ and IL-17+ T cells) [7]: significantly reduced
histological score for pulmonary fibrosis [8]: significantly reduced
expression of Col1 in lung tissue [9]: significantly reduced
expression of IL-17 in lung tissue [9]: significantly reduced
expression of aSMA in lung tissue [9]: significantly reduced
number of CSV positive cells in lung tissue [9]: significantly reduced
expression of CSV in the skin tissue [10]: significantly reduced
thickness of the skin dermis layer [10]: significantly reduced
